Reference: patent US12071430B2 (The Johns Hopkins University, priority 2011, dated 2024)
Values after ≈ are worked out from the molar mass of the structure shown. Where two headings read alike, the source gives them in different places.

Tests used:
[1] = system: HUVEC; assay: HUVEC proliferation, [3H]-thymidine incorporation assay; format: cell-based, human
Method in brief: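 Proliferation read as [3H]-thymidine uptake (1 μCi, 6 h pulse) after 24 h drug treatment in triplicate. Cells: HUVEC at passage ≤8 grown in EGM-2, plated 2000/well the night before; IC50 fitted from scintillation counts.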

[2] = target: T1, CYP3A4 (Homo sapiens, UniProt P08684); assay: CYP3A4 enzyme assay (Vivid CYP3A4 Green Screening Kit); format: in vitro ADME
T1 construct: purchased ThermoFisher P2857; host or cells: baculosomes (insect-cell microsomes, own knowledge)
Method in brief: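 Cell-free fluorescence assay with CYP3A4 baculosomes preincubated with drug 10 min at 37° C before Vivid substrate addition. Fluorescence (ex/em 485/520) read every 1 min for 60 minutes. Compounds tested at 1 μM final concentration.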

[3] = system: HUVEC; assay: HUVEC tube formation assay on Matrigel; format: cell-based; details: Homo sapiens, 24 h, read-out: inhibition of HUVEC tube formation (total tube length)
[4] = system: HUVECs; assay: Filipin staining of intracellular cholesterol (NPC phenotype); format: cell-based, human; details: HUVEC, 0.2 μM, 24 h
Description: Nieman-Pick C phenotype and mTOR inhibition. […] We thus determined whether compound 48 shared the same mechanism with itraconazole. The intracellular cholesterol was detected using the cholesterol-binding fluorescent dye filipin. […] It is known that AMPK activation leads to mTOR inhibition.
Inhibition of NPC1. NPC1 plays an essential role in cholesterol export from the endolysosome. […] At a close view (FIG. 9B), the linear pyridinyl-piperizin-1-yl-phenyl core of compound 14 nestled into the hydrophobic channel created by the transmembrane helix. The isobutyl tail faced toward the open entrance of this channel. The tetrazole moiety pointed into the closed end of the pocket and interacted with the hydroxyl group of Tyr1225 via hydrogen bonding.
Filipin staining. 2000 HUVECs were plated in chamber slide with 1 ml media and allowed to settle overnight. […] The the cells were fixed with 4% paraformaldehyde for 15 min. After washed, cells were incubated with 500 ul 50 ug/ml filipin solution for 1 hour in the dark. Then the cells were washed twice with PBS, mounted and covered with coverslip. The images were taken using confocal microscope under 360/460 nm.

[5] = system: AMPK; assay: Western blot, AMPK activation in HUVEC; format: cell-based, human; details: 24 h, dose-dependent
Experimental: (§1) Western blot. […] Then cells were lysed using RIPA buffer and the protein concentration were measured and normalized. After electrophoresis and transfer onto 0.45 um nitrocellulose membranes, the membranes were bolted with 5% BSA for 1 h and then incubated overnight at 4° C. Secondary antibody was applied to each membrane for 1 hour. Bolts were imaged using Syngene PXi imaging system after adding chemiluminescent substrate. The following antibodies were used for the assay: AMPKα (1:1,000, cell signaling, #2532s), phosphor-AMPKα (1:1,000, cell signaling #2535s), ACC (1:1,000, cell signaling #3662s), phosphor-ACC (1:1,000, cell signaling, #3661s), mTOR (1:1,000, cell signaling, #2972S), phosphor-mTOR (1:1,000, cell signaling, #9234s), p70 S6 Kinase (1:1,000, senta cruz, #sc-8418), phosphor-p70 S6 Kinase (1:1,000, cell signaling, #3662s), anti-Rabbit IgG (1:10000, GE lifesciences, #NA934V).

[6] = system: mTOR; assay: Western blot, mTOR inhibition in HUVEC; format: cell-based, human; details: for mTOR inhibition (phosphorylation of mTOR / p70 S6K): 24 h
Experimental: as §1

[7] = system: VEGFR2; assay: Western blot, VEGFR2 glycosylation in HUVEC; format: cell-based, human; details: 24 h
Experimental: mTOR and VEGFR2 inhibition. We then determined the effects of compound 14 on AMPK/mTOR activity and VEGFR2 glycosylation. […] We observed two VEGFR2 bands by Western blotting, representing differentially glycosylated forms of the receptor, with the higher molecular weight band being more predominant in untreated HUVEC. […] The high molecular weight species of VEGFR2 disappeared upon treatment with compound 14 at concentrations of 0.5 μM or higher (FIG. 10A). We next determined whether compound 14 and other analogs affected cellular localization of VEGFR2 using immunofluorescence (FIG. 10B). […] In contrast, in the untreated cells VEGFR2 was uniformly distributed in small puncta throughout the cytoplasm. As a critical component of lipid rafts, cholesterol is pivotal to intracellular transportation and cell signaling.
Western blot. […] Then cells were lysed using RIPA buffer and the protein concentration were measured and normalized. After electrophoresis and transfer onto 0.45 um nitrocellulose membranes, the membranes were bolted with 5% BSA for 1 h and then incubated overnight at 4° C. Secondary antibody was applied to each membrane for 1 hour. Bolts were imaged using Syngene PXi imaging system after adding chemiluminescent substrate. […]

[8] = system: VEGFR2; assay: Immunofluorescence assay, VEGFR2 cellular localization; format: cell-based, human; details: HUVEC, 2 μM, 24 h, colocalized with GM130
Experimental: Immunofluorescence assay. HUVECs (5000) were seeded in 4-well chamber slide (Nunc™ Lab-Tek™ II) with 1 mL media and cultured overnight. Cells were treated with […] drugs or DMSO for 24 h. The media was then aspirated and washed 3 times with PBS. Cells were fixed with 4% paraformaldehyde for 15 min, washed three times with PBS, permeabilized with 0.1% Triton X and washed again. 2% BSA blocking buffer was applied to the cells for 1 h. The primary antibodies of VEGFR2 (1:50, cell signaling, #2479) and GM130 (1:1000, BD, #610823) were incubated overnight at 4° C. After washing 3 times with 0.5% BSA in PBS, secondary antibody solutions (1:1000 goat anti-rabbit Alexa Fluor 488, Invitrogen, #A11008 and 1:1000 goat anti-mouse Alexa Fluor 594, Invitrogen, A11005) were applied at room temperature for 1 h in the dark. After washing 3 times, slides were incubated in 0.1 μg/mL DAPI solution for 5 min and rinsed 2 times with PBS. The coverslip was mounted with Immunount (Fisher) and sealed with nail polish. Confocal images were taken using Zeiss LSM700 confocal microscope with 20× lenses.

[9] = Aqueous solubility test in 0.001N HCl; format: physicochemical; details: for solubility at 24 h: 0.001 N HCl aqueous buffer, simulated gastric fluid, kinetic from dmso stock, thermodynamic solubility, HPLC, pH=3, room temperature
Experimental: The inhibitory effects of the new analogs on HUVEC proliferation were measured using a [3H]-thymidine incorporation assay. The log P values, used as an indicator of lipophilicity, were calculated using ALOGPS2.1 software. Aqueous solubility is a key physiochemical property relevant for oral absorption. We determined the solubility of each analog in 0.001 N HCl (pH=3), which represents the acidic human gastric fluid.
Aqueous solubility test. In a 1.5 mL microcentrifuge tube, 2 ul of 10 mM compound stock solution in DMSO was added to 1 mL 0.001N HCl aqueous buffer to obtain saturated solution. The resulting mixture was shaken under 600 rpm for 24 h at room temperature. Then the tube was centrifuged at 13,000 rpm for 5 min to remove the undissolved compound. 100 ul of the supernatant was injected to an Agilent 6120 LC/MS for analysis. The mass spectrometry data was collected under SIM/Scan mode. The ions of compound Exact Mass+1 and Exact Mass+23 were monitored as selected ion monitoring (SIM) for peak area integration. Solubility was calculated according to the concentration standard curve of each compound.

[10] = system: HUVEC; assay: HUVEC proliferation, [3H]-thymidine incorporation assay; format: cell-based; details: Homo sapiens, mean ± SD, three independent experiments, read-out: HUVEC inhibition IC50
[11] = Earlier SAR studies, anti-angiogenic activity
[12] = Earlier SAR studies, hepatotoxicity
[13] = background statement; cited from earlier work

T1 sequence (P08684 whole entry): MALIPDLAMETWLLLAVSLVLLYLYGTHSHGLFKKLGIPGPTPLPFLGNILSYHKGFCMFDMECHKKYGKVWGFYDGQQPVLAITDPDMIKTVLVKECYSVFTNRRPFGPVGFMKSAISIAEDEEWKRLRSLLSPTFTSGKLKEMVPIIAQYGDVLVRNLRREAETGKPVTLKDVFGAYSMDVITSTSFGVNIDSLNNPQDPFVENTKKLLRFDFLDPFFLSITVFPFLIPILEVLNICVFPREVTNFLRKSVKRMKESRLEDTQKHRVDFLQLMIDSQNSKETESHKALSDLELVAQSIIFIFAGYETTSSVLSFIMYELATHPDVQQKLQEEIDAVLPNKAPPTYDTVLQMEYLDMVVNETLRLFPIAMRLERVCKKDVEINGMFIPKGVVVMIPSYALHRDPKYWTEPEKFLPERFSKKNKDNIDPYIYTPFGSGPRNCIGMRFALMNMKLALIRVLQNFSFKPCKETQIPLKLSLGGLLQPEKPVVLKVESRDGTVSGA

CCC(C)n1ncn(-c2ccc(N3CCN(c4ccc(OC[C@@H]5CO[C@@](Cn6cnnn6)(c6ccc(Cl)cc6Cl)O5)cn4)CC3)cc2)c1=O (stereo partly drawn) [Compound 14, 4-(4-(4-(5-(((2S,4R)-2-((1H-tetrazol-1-yl)methyl)-2-(2,4-dichlorophenyl)-1,3-dioxolan-4-yl)methoxy)pyridin-2-yl)piperazin-1-yl)phenyl)-2-(sec-butyl)-2,4-dihydro-3H-1,2,4-triazol-3-one]
IC50 ([1]; [3H]-thymidine incorporation, mean ± SD, three independent experiments, read-out: HUVEC inhibition IC50): 77.1 ± 11.9 nM
IC50 ([2]; dose-response, FIG. 2 / FIG. 6, read-out: IC50 for CYP3A4 inhibition): 95 µM
inhibition at 3 µM [3]: 70%
induction of NPC phenotype (cholesterol accumulation) [4]: massive build-up of cholesterol
AMPK activation (phosphorylation of AMPK Thr172 / substrate ACC) [5]: activated AMPK
S6K phosphorylation at higher doses ([6]; 1 μM and 2 μM): completely abolished
mTOR inhibition (phosphorylation of mTOR / p70 S6K) [6]: potently inhibited
VEGFR2 glycosylation, band mobility [7]: mobility shift to the lower molecular weight, hypoglycosylated band
concentration at which the high molecular weight species of VEGFR2 disappeared [7]: ≥ 0.5 µM
VEGFR2 cellular localization [8]: accumulated in the perinuclear region
increase in solubility compared to itraconazole ([9]; 0.001N HCl): over 90 fold
solubility at 24 h [9]: 0.951 µg/mL (≈ 1.34 µM)
IC50 [10]: 77 nM

CCC(C)n1ncn(-c2ccc(N3CCN(c4ccc(OC[C@@H]5CO[C@@](Cn6cnnn6)(c6ccc(Cl)cc6Cl)O5)cc4)CC3)cc2)c1=O (stereo partly shown) [Compound 24]
CYP3A4 inhibition, in words ([2]; dose response or compared with itraconazole): significantly reduced CYP3A4 inhibition
induction of NPC phenotype (cholesterol accumulation) ([4]; listed as compound 24): massive build-up of cholesterol
solubility at 24 h [9]: 0.321 µg/mL (≈ 0.455 µM)
anti-angiogenic activity, in words [11]: increased activity

CCC(C)n1ncn(-c2ccc(N3CCN(c4ccc(OC[C@@H]5CO[C@@](Cn6cnnn6)(c6ccc(Cl)cc6Cl)O5)cc4)CC3)cc2)c1=O (stereo partly drawn) [Compound 48, 4-(4-(4-(4-(((2S,4R)-2-((1H-tetrazol-1-yl)methyl)-2-(2,4-dichlorophenyl)-1,3-dioxolan-4-yl)methoxy)phenyl)piperazin-1-yl)phenyl)-1-sec-butyl-1H-1,2,4-triazol-5(4H)-one]
Proliferation (IC50/IC50 Itra) ([1]; HUVEC IC50 relative to itraconazole): 0.4
CYP3A4 Inhibition (compared to intracozanole at 1 um) ([2]; % enzyme inhibition at 1 uM drug / % enzyme inhibition at 1 uM itraconazole): 0.02
IC50 at 60 min ([2]; human, recombinant CYP3A4 baculosomes (cell-free), probe Vivid substrate (Vivid CYP3A4 Green Screening Kit), dose-response, FIG. 2 / FIG. 6, read-out: IC50 for CYP3A4 inhibition): > 20 µM
EC50 at 60 min ([2]; human, recombinant CYP3A4 baculosomes, probe Vivid substrate (Vivid CYP3A4 Green Screening Kit), read-out: EC50 against CYP3A4): > 20 µM
induction of NPC phenotype (cholesterol accumulation) ([4]; listed as compound 48): induced NPC phenotype
AMPK activation (phosphorylation of AMPK Thr172 / substrate ACC) [5]: increased the phosphorylation of AMPK
mTOR inhibition (phosphorylation of mTOR / p70 S6K) [6]: decrease in the phosphorylation of mTOR

CCC(C)n1ncn(-c2ccc(N3CCN(c4ccc(OC[C@@H]5CO[C@@](Cn6cncn6)(c6ccc(Cl)cc6Cl)O5)cc4)CC3)cc2)c1=O (stereo partly shown) [IT-C]
anti-angiogenic activity, in words [11]: strongest anti-angiogenic activity
hepatotoxicity, in words [12]: significantly reduced hepatotoxicity

CCC(C)n1ncn(-c2ccc(N3CCN(c4ccc(OCC5COC(Cn6cncn6)(c6ccc(Cl)cc6Cl)O5)cc4)CC3)cc2)c1=O (stereo not shown) [itraconazole, reference compound]
solubility at 24 h [9]: 0.0101 µg/mL (≈ 0.0143 µM)
log P [13]: 5.3
